# Reference: patent US20250340557A1, “PYRIMIDINE DERIVATIVE” (ASKA PHARMACEUTICAL CO., LTD., priority 2022, published 2025)
# Molecular target: T1, human mPGES-1 (Homo sapiens, UniProt O14684)
# T1 construct: made in house; host or cells: COS-1 cells (transient transfection; microsomal fraction used as enzyme)
# T1 sequence (O14684 1-152): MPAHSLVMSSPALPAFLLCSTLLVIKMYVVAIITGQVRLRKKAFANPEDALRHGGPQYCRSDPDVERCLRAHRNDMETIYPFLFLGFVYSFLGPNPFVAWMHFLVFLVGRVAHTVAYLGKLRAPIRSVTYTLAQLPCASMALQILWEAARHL
# Assay: Test for mPGES-1 inhibitory activity (microsomal enzyme, PGE2 EIA)
# Format: biochemical
# Conditions: microsomes of COS-1 cells transfected with human mPGES-1 cDNA; PGH2 1 μM; 4° C., 4 minutes; PGE2 by EIA; read-out: h mPGES1 IC50
# Summary of the method: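 Enzyme source was microsomes from COS-1 cells transiently expressing human mPGES-1, in sodium phosphate pH 7.2 with 2.5 mM GSH, 1 mM EDTA and 2% DMSO final. After a 15 min preincubation with compound at 4 °C, 1 μM PGH2 (final) reacted for 4 min at 4 °C.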
row,Structure (SMILES),IC50 [nM]
1,"O=c1cc(C(F)(F)F)nc(-c2c(C(F)(F)F)ccc(CNC(=O)[C@H]3C[C@H](OCc4cc(Cl)ccc4F)C3)c2F)[nH]1 [Example 156, trans-3-[(5-chloro-2-fluorobenzyl)oxy]-N-{2-fluoro-3-[6-oxo-4-(trifluoromethyl)-1,6-dihydropyrimidin-2-yl]-4-(trifluoromethyl)benzyl}cyclobutane-1-carboxamide]",< 1
2,"O=c1cc(C(F)(F)F)nc(-c2c(C(F)(F)F)ccc(CNC(=O)[C@H]3C[C@H](OCc4ccc(F)c(Cl)c4)C3)c2F)[nH]1 [Example 157, trans-3-[(3-chloro-4-fluorobenzyl)oxy]-N-{2-fluoro-3-[6-oxo-4-(trifluoromethyl)-1,6-dihydropyrimidin-2-yl]-4-(trifluoromethyl)benzyl}cyclobutane-1-carboxamide]",< 1
3,"O=c1cc(C(F)(F)F)nc(-c2c(C(F)(F)F)ccc(CNC(=O)[C@H]3C[C@@H](OCc4ccc(F)c(Cl)c4)C3)c2F)[nH]1 [Example 158, cis-3-[(3-chloro-4-fluorobenzyl)oxy]-N-{2-fluoro-3-[6-oxo-4-(trifluoromethyl)-1,6-dihydropyrimidin-2-yl]-4-(trifluoromethyl)benzyl}cyclobutane-1-carboxamide]",< 1
4,"O=c1cc(C(F)(F)F)nc(-c2c(C(F)(F)F)ccc(CNC(=O)[C@H]3C[C@H](OCc4cc(F)cc(Cl)c4)C3)c2F)[nH]1 [Example 159, trans-3-[(3-chloro-5-fluorobenzyl)oxy]-N-{2-fluoro-3-[6-oxo-4-(trifluoromethyl)-1,6-dihydropyrimidin-2-yl]-4-(trifluoromethyl)benzyl}cyclobutane-1-carboxamide]",< 12
5,"O=c1cc(C(F)(F)F)nc(-c2c(C(F)(F)F)ccc(CNC(=O)[C@H]3C[C@@H](OCc4cc(F)cc(Cl)c4)C3)c2F)[nH]1 [Example 160, cis-3-[(3-chloro-5-fluorobenzyl)oxy]-N-{2-fluoro-3-[6-oxo-4-(trifluoromethyl)-1,6-dihydropyrimidin-2-yl]-4-(trifluoromethyl)benzyl}cyclobutane-1-carboxamide]",< 1
6,"O=c1cc(C(F)F)nc(-c2c(C(F)(F)F)ccc(CNC(=O)[C@H]3C[C@H](OCc4ccccc4Cl)C3)c2F)[nH]1 [Example 161, trans-3-[(2-chlorobenzyl)oxy]-N-{3-[4-(difluoromethyl)-6-oxo-1,6-dihydropyrimidin-2-yl]-2-fluoro-4-(trifluoromethyl)benzyl}cyclobutane-1-carboxamide]",< 1
7,"O=c1cc(C(F)F)nc(-c2c(C(F)(F)F)ccc(CNC(=O)[C@H]3C[C@H](OCc4cccc(Cl)c4)C3)c2F)[nH]1 [Example 162, trans-3-[(3-chlorobenzyl)oxy]-N-{3-[4-(difluoromethyl)-6-oxo-1,6-dihydropyrimidin-2-yl]-2-fluoro-4-(trifluoromethyl)benzyl}cyclobutane-1-carboxamide]",< 1
8,"O=c1cc(C(F)F)nc(-c2c(C(F)(F)F)ccc(CNC(=O)[C@H]3C[C@H](OCc4ccc(Cl)cc4)C3)c2F)[nH]1 [Example 163, trans-3-[(4-chlorobenzyl)oxy]-N-{3-[4-(difluoromethyl)-6-oxo-1,6-dihydropyrimidin-2-yl]-2-fluoro-4-(trifluoromethyl)benzyl}cyclobutane-1-carboxamide]",< 1
9,"O=c1cc(C(F)F)nc(-c2c(C(F)(F)F)ccc(CNC(=O)[C@H]3C[C@H](OCc4ccccc4C(F)(F)F)C3)c2F)[nH]1 [Example 164, trans-N-{3-[4-(difluoromethyl)-6-oxo-1,6-dihydropyrimidin-2-yl]-2-fluoro-4-(trifluoromethyl)benzyl}-3-{[2-(trifluoromethyl)benzyl]oxy}cyclobutane-1-carboxamide]",< 1
10,"O=c1cc(C(F)F)nc(-c2c(C(F)(F)F)ccc(CNC(=O)[C@H]3C[C@H](OCc4cccc(C(F)(F)F)c4)C3)c2F)[nH]1 [Example 165, trans-N-{3-[4-(difluoromethyl)-6-oxo-1,6-dihydropyrimidin-2-yl]-2-fluoro-4-(trifluoromethyl)benzyl}-3-{[3-(trifluoromethyl)benzyl]oxy}cyclobutane-1-carboxamide]",< 1
11,"O=c1cc(C(F)F)nc(-c2c(C(F)(F)F)ccc(CNC(=O)[C@H]3C[C@H](OCc4ccc(C(F)(F)F)cc4)C3)c2F)[nH]1 [Example 166, trans-N-{3-[4-(difluoromethyl)-6-oxo-1,6-dihydropyrimidin-2-yl]-2-fluoro-4-(trifluoromethyl)benzyl}-3-{[4-(trifluoromethyl)benzyl]oxy}cyclobutane-1-carboxamide]",8.8
12,"O=c1cc(C(F)F)nc(-c2c(C(F)(F)F)ccc(CNC(=O)[C@H]3C[C@H](OCc4ccc(F)cc4F)C3)c2F)[nH]1 [Example 167, trans-3-[(2,4-difluorobenzyl)oxy]-N-{3-[4-(difluoromethyl)-6-oxo-1,6-dihydropyrimidin-2-yl]-2-fluoro-4-(trifluoromethyl)benzyl}cyclobutane-1-carboxamide]",< 1
13,"O=c1cc(C(F)F)nc(-c2c(C(F)(F)F)ccc(CNC(=O)[C@H]3C[C@H](OCc4ccc(Cl)cc4F)C3)c2F)[nH]1 [Example 168, trans-3-[(4-chloro-2-fluorobenzyl)oxy]-N-{3-[4-(difluoromethyl)-6-oxo-1,6-dihydropyrimidin-2-yl]-2-fluoro-4-(trifluoromethyl)benzyl}cyclobutane-1-carboxamide]",< 1
14,"O=c1cc(C(F)F)nc(-c2c(C(F)(F)F)ccc(CNC(=O)[C@H]3C[C@H](OCc4ccc(F)c(F)c4)C3)c2F)[nH]1 [Example 169, trans-3-[(3,4-difluorobenzyl)oxy]-N-{3-[4-(difluoromethyl)-6-oxo-1,6-dihydropyrimidin-2-yl]-2-fluoro-4-(trifluoromethyl)benzyl}cyclobutane-1-carboxamide]",< 1
15,"O=c1cc(C(F)F)nc(-c2c(C(F)(F)F)ccc(CNC(=O)[C@H]3C[C@H](OCc4cc(F)cc(F)c4)C3)c2F)[nH]1 [Example 170, trans-3-[(3,5-difluorobenzyl)oxy]-N-{3-[4-(difluoromethyl)-6-oxo-1,6-dihydropyrimidin-2-yl]-2-fluoro-4-(trifluoromethyl)benzyl}cyclobutane-1-carboxamide]",1.3
16,"O=c1cc(C(F)F)nc(-c2c(C(F)(F)F)ccc(CNC(=O)[C@H]3C[C@H](OCc4cccc(F)c4)C3)c2F)[nH]1 [Example 171, trans-N-{3-[4-(difluoromethyl)-6-oxo-1,6-dihydropyrimidin-2-yl]-2-fluoro-4-(trifluoromethyl)benzyl}-3-[(3-fluorobenzyl)oxy]cyclobutane-1-carboxamide]",< 1
17,"O=c1cc(C(F)F)nc(-c2c(C(F)(F)F)ccc(CNC(=O)[C@H]3C[C@H](OCc4cccc(F)c4F)C3)c2F)[nH]1 [Example 172, trans-3-[(2,3-difluorobenzyl)oxy]-N-{3-[4-(difluoromethyl)-6-oxo-1,6-dihydropyrimidin-2-yl]-2-fluoro-4-(trifluoromethyl)benzyl}cyclobutane-1-carboxamide]",< 1
18,"O=c1cc(C(F)F)nc(-c2c(C(F)(F)F)ccc(CNC(=O)[C@H]3C[C@H](OCc4ccc(F)cc4Cl)C3)c2F)[nH]1 [Example 173, trans-3-[(2-chloro-4-fluorobenzyl)oxy]-N-{3-[4-(difluoromethyl)-6-oxo-1,6-dihydropyrimidin-2-yl]-2-fluoro-4-(trifluoromethyl)benzyl}cyclobutane-1-carboxamide]",< 1
19,"O=c1cc(C(F)F)nc(-c2c(C(F)(F)F)ccc(CNC(=O)[C@H]3C[C@H](OCc4cccc(Cl)c4F)C3)c2F)[nH]1 [Example 174, trans-3-[(3-chloro-2-fluorobenzyl)oxy]-N-{3-[4-(difluoromethyl)-6-oxo-1,6-dihydropyrimidin-2-yl]-2-fluoro-4-(trifluoromethyl)benzyl}cyclobutane-1-carboxamide]",< 1
20,"O=c1cc(C(F)F)nc(-c2c(C(F)(F)F)ccc(CNC(=O)[C@H]3C[C@H](OCc4cc(Cl)ccc4F)C3)c2F)[nH]1 [Example 175, trans-3-[(5-chloro-2-fluorobenzyl)oxy]-N-{3-[4-(difluoromethyl)-6-oxo-1,6-dihydropyrimidin-2-yl]-2-fluoro-4-(trifluoromethyl)benzyl}cyclobutane-1-carboxamide]",< 1
21,"O=c1cc(C(F)F)nc(-c2c(C(F)(F)F)ccc(CNC(=O)[C@H]3C[C@H](OCc4ccc(F)c(Cl)c4)C3)c2F)[nH]1 [Example 176, trans-3-[(3-chloro-4-fluorobenzyl)oxy]-N-{3-[4-(difluoromethyl)-6-oxo-1,6-dihydropyrimidin-2-yl]-2-fluoro-4-(trifluoromethyl)benzyl}cyclobutane-1-carboxamide]",< 1
22,"O=c1cc(C(F)F)nc(-c2c(C(F)(F)F)ccc(CNC(=O)[C@H]3C[C@H](OCc4cc(F)cc(Cl)c4)C3)c2F)[nH]1 [Example 177, trans-3-[(3-chloro-5-fluorobenzyl)oxy]-N-{3-[4-(difluoromethyl)-6-oxo-1,6-dihydropyrimidin-2-yl]-2-fluoro-4-(trifluoromethyl)benzyl}cyclobutane-1-carboxamide]",10
23,"Cc1cc(=O)[nH]c(-c2c(C(F)(F)F)ccc(CNC(=O)[C@H]3C[C@H](OCc4ccccc4Cl)C3)c2F)n1 [Example 178, trans-3-[(2-chlorobenzyl)oxy]-N-[2-fluoro-3-(4-methyl-6-oxo-1,6-dihydropyrimidin-2-yl)-4-(trifluoromethyl)benzyl]cyclobutane-1-carboxamide]",< 1
